We go through 10 compounds from patent US7776855B2, “Antimicrobial oxazolidinone prodrugs” (Janssen Pharmaceutica N.V., priority 2006, dated 2010).

Structures are written as SMILES. ≈ marks a conversion by molar mass, not a printed value. Where two headings read alike, the source gives them in different places.

Series [1] is described as follows: Prodrug Solubility (visual inspection in buffer). The class given is physicochemical. As to conditions: aqueous buffer, thermodynamic from solid. The protocol: One mg of each compound was diluted with at least 100 μl of the designated buffer, vortexed vigorously for approximately 1 minute, and visually inspected. Sodium citrate (40 mM) was buffered to pH 4 and phosphate-buffered saline was buffered to pH 7. Solutions with no remaining particles were recorded with a solubility ≧to the starting concentration. Compound suspensions were further diluted in 0.1 mL increments followed by vortexing as above, until the prodrug was dissolved. Solubilities of prodrugs ranged from 1.0 mg/ml to >10 mg/ml. The term “ND” means not determined.

A short description of series [2]: Pharmacokinetics of Prodrugs in Animal Models, all species tested (summary). The class given is in vivo, mice, rats, or dogs. The note with it: for PK parameters, normalized to the dose, compared with the respective parameters for Compound 1: all species tested (Table 3a-3d); for conversion of the prodrug form in vivo: all species tested, inferred from PK parameters. The protocol: Animals were weighed and given the prodrug intravenously (mice, rats, or dogs) or orally (mice). The prodrugs were prepared immediately before dosing in 40 mM sodium citrate buffer, pH 4. Compound 1 was prepared in 20% HPβCD and warmed until dissolved (IV dosing), or in 0.5% methocel as a suspension (PO dosing). At 0, 0.08, 0.25, 0.5, 1, 2, 4, 6, 8, and 24 hours, blood was removed (via cardiac puncture in euthanized mice, via orbital sinus puncture in anesthetized rats, or via cephalic vein in conscious dogs) and 200 µL of the plasma supernatant was immediately frozen (−70° C.).
On the day of analysis, the samples were thawed on ice and 100 μL was diluted with 200 μL of acetonitrile. The samples were vortexed and then centrifuged at 3000×g for 5 minutes to pellet the precipitated plasma proteins. The supernatant was analyzed by HPLC, or by LC-MS-MS. A standard curve was constructed by spiking a known quantity of Compound 1 into plasma and then performing serial dilutions in the range of 0.01 to 10 μg/mL. Pharmacokinetic (PK) parameters were calculated by WinNonlin Pro, version 3.1.
The term “ND” means not determined. The term “NA” means not applicable. The dose of each prodrug was normalized to the Compound 1 dose. The values of the PK parameters for the prodrug form for Compounds 4a and 21a are based on the resulting accumulation and elimination of Compound 1.

The nature of series [3]: Solubility of Compound 1 in pH 4 buffer (24 h shaking, HPLC). The class given is physicochemical. The note with it: aqueous buffer, thermodynamic from solid, ambient temperature. On the procedure: The solubility of the active drug, Compound 1, was determined in a separate experiment in which an excess of the compound was added to pH 4 buffer. The mixture was shaken with a Burrell wrist action shaker at ambient temperature for 24 hours. Excess solute was removed by centrifugation, the supernatant was diluted with a suitable solvent, and the concentration of the compound was measured using HPLC. The solubility of Compound 1 at pH 4 was 0.007 mg/mL.

Series [4] deals with S. aureus Smith. Briefly: Mouse Systemic Lethal Infection Model. The class given is in vivo. As to conditions: Staphylococcus aureus, female Swiss Webster mice, infected intraperitoneally, three day survival, prodrug ED50 normalized to content of Compound 1. On the procedure:
Female Swiss Webster mice weighing between 20-25 g were infected intraperitoneally with approximately 5×10^5 colony forming units (CFU) S. aureus Smith in 7% mucin. One hour later, the animals were given prodrug or Compound 1 intravenously or orally in a dose volume of 0.1 mL/10 g body weight. Each group consisted of eight animals. The prodrugs were prepared immediately before dosing in 40 mM sodium citrate buffer, pH 4. Compound 1 was prepared in 20% HPβCD and warmed until dissolved (IV dosing) or in 0.5% methocel (PO dosing) as a suspension. The mice were observed over a three day period and ED50 values were calculated from the resulting % survival curves (Table 2). The term “ND” means not determined. The prodrug ED50 values were normalized to the content of Compound 1.

Where [5] appears, read: phosphate-buffered saline pH 7, read-out: Solubility Saline.
Where [6] appears, read: 40 mM sodium citrate buffer, Sodium citrate (40 mM) pH 4, read-out: Solubility Sodium Citrate.

Broadly, the solubility is the concentration that dissolves in the medium under given conditions. As for `CCOP(=O)(O)OCOC(=O)N(C[C@H]1CN(c2ccc(N3Cc4cn(C)nc4C3)c(F)c2)C(=O)O1)C(C)=O` [Compound 21a, Acetyl-{(R)-3-[3-fluoro-4-(2-methyl-2,6-dihydro-4H-pyrrolo[3,4-c]pyrazol-5-yl)-phenyl]-2-oxo-oxazolidin-5-ylmethyl}-carbamic acid ethoxy-hydroxy-phosphoryloxymethyl ester], the solubility at 1 min in series [1] (Sodium citrate (40 mM) pH 4, read-out: Solubility Sodium Citrate) is no less than 10000 µg/mL. Moreover, the solubility at 1 min in series [1] (setting [5]) was no less than 10000 µg/mL. In addition, in series [2], the “PK parameters, normalized to the dose, compared with the respective parameters for Compound 1” value was “similar” and the “conversion of the prodrug form in vivo” value is “rapidly converted in vivo to Compound 1”.
As for `CNCC(=O)OCOC(=O)N(C[C@H]1CN(c2ccc(N3Cc4cn(C)nc4C3)c(F)c2)C(=O)O1)C(C)=O` [Compound 10, Methylamino-acetic acid (acetyl-{(R)-3-[3-fluoro-4-(2-methyl-2,6-dihydro-4H-pyrrolo[3,4-c]pyrazol-5-yl)-phenyl]-2-oxo-oxazolidin-5-ylmethyl}-carbamoyloxy)-methyl ester], the solubility at 1 min in series [1] (setting [6]) and in series [1] (setting [5]) was no less than 10000 µg/mL in each case.
In the case of `CC(=O)N(C[C@H]1CN(c2ccc(N3Cc4cn(C)nc4C3)c(F)c2)C(=O)O1)C(=O)OCOC(=O)CN1CCOCC1` [Compound 6, Morpholin-4-yl-acetic acid (acetyl-{(R)-3-[3-fluoro-4-(2-methyl-2,6-dihydro-4H-pyrrolo[3,4-c]pyrazol-5-yl)-phenyl]-2-oxo-oxazolidin-5-ylmethyl}-carbamoyloxy)-methyl ester], the figures for the solubility at 1 min in series [1] (setting [6]) and in series [1] (setting [5]) were 2500 µg/mL (≈ 4.35 mM) and 1000 µg/mL (≈ 1.74 mM), respectively.
On the same counts, the results for `CC(=O)N(C[C@H]1CN(c2ccc(N3Cc4cn(C)nc4C3)c(F)c2)C(=O)O1)C(=O)OCOC(=O)CN(C)C` [Compound 5, Dimethylamino-acetic acid (acetyl-{(R)-3-[3-fluoro-4-(2-methyl-2,6-dihydro-4H-pyrrolo[3,4-c]pyrazol-5-yl)-phenyl]-2-oxo-oxazolidin-5-ylmethyl}-carbamoyloxy)-methyl ester] are no less than 10000 µg/mL and no less than 10000 µg/mL.
In the case of `CC(=O)N(C[C@H]1CN(c2ccc(N3Cc4cn(C)nc4C3)c(F)c2)C(=O)O1)C(=O)OCOC(=O)CN1CCNCC1` [Compound 4a, Piperazin-1-yl-acetic acid (acetyl-{(R)-3-[3-fluoro-4-(2-methyl-2,6-dihydro-4H-pyrrolo[3,4-c]pyrazol-5-yl)-phenyl]-2-oxo-oxazolidin-5-ylmethyl}-carbamoyloxy)-methyl ester], the solubility at 1 min in series [1] (setting [6]) is no less than 10000 µg/mL. In addition, the solubility at 1 min in series [1] (setting [5]) is no less than 10000 µg/mL. In series [2], the “PK parameters, normalized to the dose, compared with the respective parameters for Compound 1” value is “similar” and the “conversion of the prodrug form in vivo” value is given as “rapidly converted in vivo to Compound 1”.
On to `CC(=O)N(C[C@H]1CN(c2ccc(N3Cc4cn(C)nc4C3)c(F)c2)C(=O)O1)C(=O)OCOC(=O)COP(=O)(O)O` [Compound 24, Phosphonooxy-acetic acid (acetyl-{(R)-3-[3-fluoro-4-(2-methyl-2,6-dihydro-4H-pyrrolo[3,4-c]pyrazol-5-yl)-phenyl]-2-oxo-oxazolidin-5-ylmethyl}-carbamoyloxy)-methyl ester], for which the solubility at 1 min in series [1] (setting [6]) is no less than 5000 µg/mL.
With `CC(=O)N(C[C@H]1CN(c2ccc(N3Cc4cn(C)nc4C3)c(F)c2)C(=O)O1)C(=O)OCOC(=O)CN1CCN(C)CC1` [Compound 8, (4-Methyl-piperazin-1-yl)-acetic acid (acetyl-{(R)-3-[3-fluoro-4-(2-methyl-2,6-dihydro-4H-pyrrolo[3,4-c]pyrazol-5-yl)-phenyl]-2-oxo-oxazolidin-5-ylmethyl}-carbamoyloxy)-methyl ester], the solubility at 1 min in series [1] (setting [6]) and in series [1] (setting [5]) was no less than 10000 µg/mL each time.
Turning to `CC(=O)N(C[C@H]1CN(c2ccc(N3Cc4cn(C)nc4C3)c(F)c2)C(=O)O1)C(=O)OC(C)OC(=O)CN1CCNCC1` (stereo partly drawn) [Compound 4b, Piperazin-1-yl-acetic acid 1-(acetyl-{(R)-3-[3-fluoro-4-(2-methyl-2,6-dihydro-4H-pyrrolo[3,4-c]pyrazol-5-yl)-phenyl]-2-oxo-oxazolidin-5-ylmethyl}-carbamoyloxy)-ethyl ester], the solubility at 1 min in series [1] (setting [6]) was no less than 7500 µg/mL.
Broadly, the ED50 is the dose at which the effect has come halfway, by size or by number of responders. The compound `CC(=O)NC[C@H]1CN(c2ccc(N3Cc4cn(C)nc4C3)c(F)c2)C(=O)O1` [Compound 1] registered a solubility at 24 h in series [3] of 7 µg/mL (≈ 0.0187 mM). Moreover, the ED50 in series [4] (dosed intravenously one hour later, read-out: ED50 (95% Fiducial Limits) IV) came to 3.3 mg/kg; in series [4] (dosed orally one hour later, read-out: ED50 (95% Fiducial Limits) PO), 3.5 mg/kg.
Regarding `CC(=O)N(C[C@H]1CN(c2ccc(N3Cc4cn(C)nc4C3)c(F)c2)C(=O)O1)C(=O)OCOP(=O)(O)O` [Compound 18a, Acetyl-{(R)-3-[3-fluoro-4-(2-methyl-2,6-dihydro-4H-pyrrolo[3,4-c]pyrazol-5-yl)-phenyl]-2-oxo-oxazolidin-5-ylmethyl}-carbamic acid phosphonooxymethyl ester], the solubility at 1 min in series [1] (setting [6]) and in series [1] (setting [5]) was no less than 2000 µg/mL in each case.
